Test results: US6956059B2, “Anti-inflammatory and immunomodulatory amino acid derivatives, their preparation and use” (Croda International, plc, priority 2001, dated 2005)

System: blood-brain barrier
Test: transport across the blood-brain barrier (methodology of Dehouck et al); cytotoxicity observation
Format: cell-based
Details: used at the concentration of 5 μm/l; blood-brain barrier transport experiments
Protocol: In accordance with the methodology described by Dehouck et al in J Cont Rel 81-91 (1992), experiments were performed to study the transport of the compound of Example 2 across the blood-brain barrier.

## CCCCCCCC/C=C\CCCCCCCCCCCCCC(=O)NCCCC[C@H](NC(=O)CCCCCCCCCCCCC/C=C\CCCCCCCC)C(=O)OCC [Example 2, Nα,Nε-di-(z-15-tetracosenoyl)-L-lysine ethyl ester]
  cytotoxicity: not cytotoxic
